Test results: ChEMBL document CHEMBL3271954, “Antitumor agents. 25. Synthesis and antitumor activity of uracil and thymine alpha-methylene-gamma-lactones and related derivatives” (1977)
Activity calls are given as the source filed them. No cut-off for these calls is given here.

Legend:
Assay type in all cases: functional
Conditions in all cases: for T/C: route intraperitoneal
[1] = tested on: W256; test: Antitumor activity against rat Walker 256 cells allografted in Sprague-Dawley rat at 2.5 mg/kg/day, ip relative to control
[2] = tested on: P388; test: Antitumor activity against mouse P388 cells allografted in DBA/2 mouse at 25 mg/kg/day, ip administered for 2 weeks relative to control
[3] = tested on: B16; test: Antitumor activity against mouse B16 cells allografted in C57Bl/6 mouse at 25 mg/kg/day, ip administered for 2 weeks relative to control

Row | Structure (SMILES) | T/C [1] | T/C [2] | T/C [3] | Activity [1] | Activity [2] | Activity [3]
1 | C=C1C(=O)O[C@H]2/C=C(/C)[C@H](CO)C/C=C(\C)C[C@@H](OC(=O)/C(=C/CO)CO)[C@@H]12 [EUPAFORMOSANIN] | 471% | 147% | 113% |  |  | 
2 | O=c1cc[nH]c(=O)[nH]1 |  |  |  | inactive | inactive | inactive
3 | O=c1[nH]cc(F)c(=O)[nH]1 [FLUOROURACIL] |  | 186% | 164% |  |  | 
4 | C=C1CC(C)(Cn2ccc(=O)[nH]c2=O)OC1=O (configuration not stated) | 131% | 115% | 111% |  |  | 
5 | Cc1c[nH]c(=O)[nH]c1=O |  |  |  | inactive | inactive | inactive
6 | C=C1C(=O)O[C@H]2[C@H]1[C@H](OC(=O)/C(C)=C/CO)C/C(C)=C/CC[C@@]1(CO)O[C@H]21 | 330% | 147% | 111% |  |  | 
7 | C=C1CC(C)(Cn2cc(C)c(=O)[nH]c2=O)OC1=O (configuration not stated) | 127% | 127% | 123% |  |  | 
8 | N[C@@H](Cc1ccc(N(CCCl)CCCl)cc1)C(=O)O [MELPHALAN] | 317% |  |  |  |  | 
9 | C=C1CC(C)(Cn2cc(COC(=O)c3cc(OC)c(OC)c(OC)c3)c(=O)[nH]c2=O)OC1=O (configuration not stated) | 209% | 142% | 129% |  |  | 
10 | C=C1CC(C)(Cn2cc(COC(=O)/C=C/c3ccccc3)c(=O)[nH]c2=O)OC1=O (configuration not stated) | 211% | 130% | 141% |  |  | 
